Source: patent US6855716B2, “Dihydropyrimidine compounds and compositions containing the same” (Ajinomoto Co., Inc., priority 1999, dated 2005)

Tests used:
[1] = target: T1, N-type calcium channel (Homo sapiens, UniProt Q00975); assay: N-type calcium channel antagonistic activity, changed procedure (fluorescence dye method, calculated from inhibition rates); assay type: cell-based; settings: IMR-32 cells, 60 mM KCl stimulation, Table 3, read-out: N-type inhibition pIC50 (converted)
[2] = target: T1, N-type calcium channel; assay: Antagonistic activity on N-type calcium channel (fluorescence dye method); assay type: cell-based

T1 sequence (Q00975 whole entry): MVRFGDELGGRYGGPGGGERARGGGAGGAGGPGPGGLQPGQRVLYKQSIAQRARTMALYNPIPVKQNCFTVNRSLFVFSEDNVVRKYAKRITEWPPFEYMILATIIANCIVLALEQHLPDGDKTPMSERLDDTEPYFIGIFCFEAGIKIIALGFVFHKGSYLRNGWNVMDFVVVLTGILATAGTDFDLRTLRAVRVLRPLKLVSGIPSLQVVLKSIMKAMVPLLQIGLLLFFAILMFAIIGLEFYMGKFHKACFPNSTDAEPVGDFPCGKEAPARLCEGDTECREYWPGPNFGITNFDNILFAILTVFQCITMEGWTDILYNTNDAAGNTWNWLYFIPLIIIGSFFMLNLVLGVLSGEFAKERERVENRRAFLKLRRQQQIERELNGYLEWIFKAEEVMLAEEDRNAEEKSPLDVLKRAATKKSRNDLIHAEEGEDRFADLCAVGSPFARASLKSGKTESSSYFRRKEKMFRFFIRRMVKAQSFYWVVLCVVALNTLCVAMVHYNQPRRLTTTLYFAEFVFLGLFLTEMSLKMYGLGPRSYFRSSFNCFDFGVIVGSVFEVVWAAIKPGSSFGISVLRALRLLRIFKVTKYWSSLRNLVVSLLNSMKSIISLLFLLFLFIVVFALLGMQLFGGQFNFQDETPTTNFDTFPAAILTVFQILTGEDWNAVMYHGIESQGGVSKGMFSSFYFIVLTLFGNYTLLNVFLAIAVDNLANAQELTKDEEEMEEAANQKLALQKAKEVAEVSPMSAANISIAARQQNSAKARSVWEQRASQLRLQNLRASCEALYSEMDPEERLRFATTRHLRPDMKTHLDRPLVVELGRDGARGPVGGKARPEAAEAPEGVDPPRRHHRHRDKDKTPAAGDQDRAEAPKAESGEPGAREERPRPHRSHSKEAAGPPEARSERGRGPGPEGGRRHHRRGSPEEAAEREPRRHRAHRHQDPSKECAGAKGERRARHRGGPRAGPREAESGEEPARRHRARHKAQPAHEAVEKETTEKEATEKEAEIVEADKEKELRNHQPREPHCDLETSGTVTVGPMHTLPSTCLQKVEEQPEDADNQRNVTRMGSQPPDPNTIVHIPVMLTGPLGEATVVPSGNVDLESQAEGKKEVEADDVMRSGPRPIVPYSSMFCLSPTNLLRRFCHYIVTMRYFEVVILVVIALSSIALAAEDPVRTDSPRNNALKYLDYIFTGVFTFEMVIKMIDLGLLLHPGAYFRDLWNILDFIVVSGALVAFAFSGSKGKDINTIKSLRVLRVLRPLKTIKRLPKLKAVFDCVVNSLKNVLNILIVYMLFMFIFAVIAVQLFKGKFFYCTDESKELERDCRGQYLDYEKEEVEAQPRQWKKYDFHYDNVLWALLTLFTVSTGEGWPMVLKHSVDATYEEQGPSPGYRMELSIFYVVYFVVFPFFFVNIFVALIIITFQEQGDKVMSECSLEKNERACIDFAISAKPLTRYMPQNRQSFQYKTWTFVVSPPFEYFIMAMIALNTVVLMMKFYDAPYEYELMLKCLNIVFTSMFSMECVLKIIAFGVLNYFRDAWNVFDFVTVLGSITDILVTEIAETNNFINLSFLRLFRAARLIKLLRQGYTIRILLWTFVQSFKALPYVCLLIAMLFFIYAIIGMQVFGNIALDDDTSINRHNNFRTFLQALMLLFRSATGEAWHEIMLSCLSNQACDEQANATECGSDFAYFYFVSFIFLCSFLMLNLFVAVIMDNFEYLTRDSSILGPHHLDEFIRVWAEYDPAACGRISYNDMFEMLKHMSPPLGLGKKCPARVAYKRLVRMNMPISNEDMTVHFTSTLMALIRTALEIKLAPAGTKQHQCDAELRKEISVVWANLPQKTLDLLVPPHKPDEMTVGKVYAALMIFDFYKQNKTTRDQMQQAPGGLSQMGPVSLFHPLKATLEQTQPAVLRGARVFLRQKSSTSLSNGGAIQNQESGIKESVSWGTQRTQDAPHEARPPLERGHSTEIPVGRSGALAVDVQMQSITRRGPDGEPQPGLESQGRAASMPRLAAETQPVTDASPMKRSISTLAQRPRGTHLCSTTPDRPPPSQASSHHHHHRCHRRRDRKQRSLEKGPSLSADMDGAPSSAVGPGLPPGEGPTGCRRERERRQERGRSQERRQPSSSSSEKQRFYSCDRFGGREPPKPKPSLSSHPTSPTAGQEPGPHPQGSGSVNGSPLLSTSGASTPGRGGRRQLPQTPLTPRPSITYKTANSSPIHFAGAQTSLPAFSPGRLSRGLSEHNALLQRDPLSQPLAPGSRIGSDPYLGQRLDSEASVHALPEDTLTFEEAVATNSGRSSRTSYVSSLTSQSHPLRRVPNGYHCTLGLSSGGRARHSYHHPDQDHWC
T1 sequence (P54284 whole entry partner): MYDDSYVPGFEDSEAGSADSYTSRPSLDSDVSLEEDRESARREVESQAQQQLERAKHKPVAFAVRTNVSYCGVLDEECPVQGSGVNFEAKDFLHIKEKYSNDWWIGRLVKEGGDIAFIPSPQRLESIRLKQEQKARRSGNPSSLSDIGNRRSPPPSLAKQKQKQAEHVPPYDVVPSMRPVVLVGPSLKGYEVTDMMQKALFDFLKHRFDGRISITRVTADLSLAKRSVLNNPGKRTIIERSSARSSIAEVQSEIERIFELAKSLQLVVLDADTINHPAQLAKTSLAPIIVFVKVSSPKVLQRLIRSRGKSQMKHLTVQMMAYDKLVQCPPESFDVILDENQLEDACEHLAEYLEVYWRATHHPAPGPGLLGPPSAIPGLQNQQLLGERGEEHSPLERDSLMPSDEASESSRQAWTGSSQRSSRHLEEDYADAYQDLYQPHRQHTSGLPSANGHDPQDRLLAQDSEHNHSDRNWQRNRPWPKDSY
T1 sequence (P54289 25-956 partner limits assumed): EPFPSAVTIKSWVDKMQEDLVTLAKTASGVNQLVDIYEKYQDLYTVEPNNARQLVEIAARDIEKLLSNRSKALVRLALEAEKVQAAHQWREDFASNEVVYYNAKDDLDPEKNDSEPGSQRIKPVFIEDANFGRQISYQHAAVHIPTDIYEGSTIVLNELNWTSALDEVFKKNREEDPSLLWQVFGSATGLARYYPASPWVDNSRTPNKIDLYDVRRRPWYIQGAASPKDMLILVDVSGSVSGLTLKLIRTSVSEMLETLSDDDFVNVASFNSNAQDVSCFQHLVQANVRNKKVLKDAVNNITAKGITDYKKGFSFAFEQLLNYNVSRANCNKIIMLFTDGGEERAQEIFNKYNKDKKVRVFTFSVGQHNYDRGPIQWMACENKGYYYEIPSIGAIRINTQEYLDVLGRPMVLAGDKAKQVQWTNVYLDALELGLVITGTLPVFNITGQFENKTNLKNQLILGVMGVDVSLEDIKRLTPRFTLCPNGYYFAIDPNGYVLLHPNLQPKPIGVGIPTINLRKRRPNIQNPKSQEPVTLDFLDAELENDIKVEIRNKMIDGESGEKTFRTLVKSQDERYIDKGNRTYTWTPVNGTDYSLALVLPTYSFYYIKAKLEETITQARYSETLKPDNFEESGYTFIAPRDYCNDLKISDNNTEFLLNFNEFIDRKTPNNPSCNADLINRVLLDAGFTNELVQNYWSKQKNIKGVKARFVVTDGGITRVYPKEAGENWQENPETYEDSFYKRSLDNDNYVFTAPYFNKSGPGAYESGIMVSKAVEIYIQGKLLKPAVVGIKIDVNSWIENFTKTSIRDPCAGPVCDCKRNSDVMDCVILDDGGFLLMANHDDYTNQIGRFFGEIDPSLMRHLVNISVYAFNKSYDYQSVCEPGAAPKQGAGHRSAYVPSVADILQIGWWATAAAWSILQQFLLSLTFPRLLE
T1 sequence (P54289 957-1103 partner limits assumed): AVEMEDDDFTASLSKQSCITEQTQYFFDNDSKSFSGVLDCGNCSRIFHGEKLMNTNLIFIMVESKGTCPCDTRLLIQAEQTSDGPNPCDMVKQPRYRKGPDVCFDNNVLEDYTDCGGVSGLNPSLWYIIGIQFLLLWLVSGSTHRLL

Structure (SMILES) | IC50 [1] | IC50 [2]
CCOC(=O)CN1C(=O)NC(C)=C(C(=O)NC/C=C/c2ccccc2)C1c1cccc(Cl)c1 (stereo not shown) [Example 45, ethyl [6-(3-chlorophenyl)-4-methyl-2-oxo-5-(3-phenyl-2-propene-1-ylcarbamoyl)-3,6-dihydro-2H-pyrimidine-1-yl]acetate] | 3.98 µM | –
COCC1=C(C(=O)NCCCc2ccccc2)C(c2cccc(Cl)c2)NC(=O)N1 (stereo not shown) [Example 6, 4-(3-chlorophenyl)-6-methoxymethyl-2-oxo-1,2,3,4-tetrahydropyrimidine-5-carboxylic acid (3-phenylpropyl)amide] | 5.01 µM | 0.977 µM
CC1=C(C(=O)NC/C=C/c2ccccc2)C(c2ccc(Cl)c(Cl)c2)N=C(c2ccccc2)N1 (stereo not shown) [Example 75, 4-(3,4-dichlorophenyl)-6-methyl-2-phenyl-1,4-dihydropyrimidine-5-carboxylic acid (3-phenyl-2-propene-1-yl)amide] | 2 µM | –
CC1=C(C(=O)NCCC(c2ccccc2)c2ccccc2)C(c2cccc(Cl)c2)NC(=O)N1 (stereo not shown) [Example 3, 4-(3-chlorophenyl)-6-methyl-2-oxo-1,2,3,4-tetrahydropyrimidine-5-carboxylic acid (3,3-diphenylpropyl)amide] | 2.51 µM | 0.891 µM
CC1=C(C(=O)NCCC(c2ccccc2)c2ccccc2)C(c2ccc(Cl)c(Cl)c2)N=C(c2cccnc2)N1 (stereo not shown) [Example 64, 4-(3,4-dichlorophenyl)-6-methyl-2-pyridine-3-yl-1,4-dihydropyrimidine-5-carboxylic acid (3,3-diphenylpropyl)amide] | 1.26 µM | –
O=C(NC/C=C/c1ccccc1)C1=C(COCCC2CCCCC2)NC(c2ccccc2)=NC1c1cccc(Cl)c1 (stereo not shown) [Example 2, 4-(3-chlorophenyl)-6-[(2-cyclohexylethoxy)methyl]-2-phenyl-5-[(3-phenyl-2-propene-1-yl)-carbamoyl]-1,4-dihydropyrimidine] | – | 5.89 µM
[N-]=[N+]=NCCOCC1=C(C(=O)NCCC(c2ccccc2)c2ccccc2)C(c2cccc(Cl)c2)NC(=O)N1 (stereo not shown) [Example 15, 6-(2-azidoethoxymethyl)-4-(3-chlorophenyl)-2-oxo-1,2,3,4-tetrahydropyrimidine-5-carboxylic acid (3,3-diphenylpropyl)amide] | 2.51 µM | –
CC1=C(C(=O)NCCC(c2ccccc2)c2ccccc2)C(c2cccc(Cl)c2)N=C(c2ccccc2)N1 (stereo not shown) [Example 67, 4-(3-chlorophenyl)-6-methyl-2-phenyl-1,4-dihydro-pyrimidine-5-carboxylic acid (3,3-diphenylpropyl)amide] | 1.58 µM | –
CC1=C(C(=O)NC/C=C/c2ccccc2)C(c2cccc(Cl)c2)N=C(c2ccccc2)N1 (stereo not shown) [Example 68, 4-(3-chlorophenyl)-6-methyl-2-phenyl-1,4-dihydropyrimidine-5-carboxylic acid (3-phenyl-2-propene-1-yl)amide] | 1.26 µM | –
O=C(NCCC(c1ccccc1)c1ccccc1)C1=C(COCCC2CCCCC2)NC(c2ccccc2)=NC1c1cccc(Cl)c1 (stereo not shown) [Example 1, 4-(3-chlorophenyl)-6-[(2-cyclohexylethoxy)methyl]-5-(3,3-diphenylpropylcarbamoyl)-2-phenyl-1,4-dihydropyrimidine] | 7.94 µM | 1.26 µM
